One data set has as its system primary rat OPCs. Description: OPC-X-screen: OPC differentiation to MBP+ OLs or GFAP+ astrocytes in presence of fibrinogen. The settings on record: for OPC differentiation to mature MBP+ OLs under extrinsic inhibition by fibrinogen: myelin-promoting compound screen, fibrinogen 1.5 mg/ml, benztropine, clemastine, quetiapine, miconazole, (±)U-50488 1 μM, clobetasol 5 μM, XAV-939 0.1 μM; for OPC differentiation to mature MBP+ OLs under extrinsic inhibition by fibrinogen / cell-fate switch of OPCs to GFAP+ cells by fibrinogen: DMH1 1 μM; for cell-fate switch of OPCs to GFAP+ cells by fibrinogen: fibrinogen-treated OPCs, clemastine 1 μM. The format is cell-based.

Data set [1] relates to BMP signaling (P-SMAD1/5, ID2) in primary rat OPCs. The data set is described as follows: Immunoblot of phospho-SMAD1/5 and ID2 in fibrinogen-treated OPCs. In kind it is cell-based. Here is the method:
Cells or tissue were lysed in RIPA lysis buffer (Thermo Fisher Scientific) supplemented with protease/phosphatase inhibitor cocktails (Calbiochem) and lysates were cleared by centrifuging at 13,000×g for 15 minutes at 4° C. Equal amounts of protein were loaded in […] bis-tris gels (Thermo Fisher Scientific) and analyzed by western blotting. Bands were visualized with HRP-conjugated secondary antibodies (Cell Signaling Technology). Densitometry was performed using ImageJ Software (NIH) with values for each band normalized to GAPDH loading controls from the same membrane. Primary antibodies were: Id2 (1:1000, rabbit monoclonal, #M213, CalBioreagents); phospho-Smad1/5 (1:1000, rabbit monoclonal, #9516, Cell Signaling Technology); GAPDH (1:1000, rabbit monoclonal, #2118, Cell Signaling Technology)
Background: Immunoblotting shows a protein as a band on a membrane.

Another data set can be described thus: Water solubility. The format is physicochemical.
Data set [2] deals with NG2-CreER™:Rosa^tdTomato/+ MOG35-55-EAE mice. As to conditions: vs saline.
In the next data set the test system is PLP-EAE. The data set is described as follows: In vivo PLP-EAE.
For a further data set, the system named is NOD-MOG35-55 EAE mice. The data set is described as follows: Progressive NOD-MOG35-55 EAE, therapeutic treatment. The format is in vivo, mouse.
Setting [3] is: fibrinogen alone vs control, OPC-X assay.
Where [4] appears, read: in vivo 2P imaging at chronic EAE.
Where [5] appears, read: LDN-212854 dose response 5 μM to 2 nM, fibrinogen 2.5 mg/ml, 3 days.

Entries after “also recorded” stand apart in the source; their conditions may differ. Like-named read-outs stand apart in the source and are kept apart here.

The values that follow come from patent US20230235036A1, “ACVR1 (ALK2) RECEPTOR INHIBITION TO TREAT NEUROLOGICAL DISEASES” (The J. David Gladstone Institutes, a testamentary trust …, priority 2020, published 2023).

In the case of `Oc1nc(-c2ccc(C(F)(F)F)cc2)nc2c1CSCC2` [XAV-939], the “OPC differentiation to mature MBP+ OLs under extrinsic inhibition by fibrinogen” value with primary rat OPCs (3 days) is reported as “did not overcome extrinsic inhibition of OPC differentiation by fibrinogen”.

Consider fibrinogen, for which, in the data set on primary rat OPCs (setting [3]), the “decrease of MBP+ mature OLs as compared to controls” value is around 60% and the “increase of GFAP+ astrocyte-like cells as compared to controls” value is recorded as around 60%.

In the case of `CC(C)Oc1ccc(-c2cnc3c(-c4ccnc5ccccc45)cnn3c2)cc1` [DMH1], in data set [1], the “fibrinogen-induced expression of BMP target protein ID2” value was “blocked” and the “fibrinogen-induced phosphorylation of SMAD1/5” value was “blocked”. Besides, the water solubility entry in the data set “Water solubility” is reported as “not water-soluble”. In addition, in the data set on primary rat OPCs (3 days), the “cell-fate switch of OPCs to GFAP+ cells by fibrinogen” value is on record as “abolished” and the “OPC differentiation to mature MBP+ OLs under extrinsic inhibition by fibrinogen” value is recorded as “restored OPC differentiation to mature OLs to control levels”.

For the compound `Clc1ccc(COC(Cn2ccnc2)c2ccc(Cl)cc2Cl)c(Cl)c1` (stereo not drawn) [miconazole], in the data set on primary rat OPCs (3 days), the “OPC differentiation to mature MBP+ OLs under extrinsic inhibition by fibrinogen” value is listed as “did not overcome extrinsic inhibition of OPC differentiation by fibrinogen”.

As for `C[C@H]1C[C@H]2[C@@H]3CCC4=CC(=O)C=C[C@]4(C)[C@@]3(F)[C@@H](O)C[C@]2(C)[C@@]1(O)C(=O)CCl` [clobetasol], in the data set with primary rat OPCs (3 days), the “OPC differentiation to mature MBP+ OLs under extrinsic inhibition by fibrinogen” value is listed as “did not overcome extrinsic inhibition of OPC differentiation by fibrinogen”.

`CN1CCC[C@@H]1CCO[C@](C)(c1ccccc1)c1ccc(Cl)cc1` [clemastine]: in data set [1], the “fibrinogen-induced expression of BMP target protein ID2” value was “did not block” and the “fibrinogen-induced phosphorylation of SMAD1/5” value is “did not inhibit”. Also, the “fibrinogen-induced phosphorylation of SMAD1/5” value in data set [1] (listed as Clemastine) is “did not block”. Besides, the “OPC differentiation to mature OLs in the presence of fibrinogen” value in the data set on primary rat OPCs (clemastine dose-response, fibrinogen 2.5 mg/ml, differentiation media without T3 or growth factors, 3 days) is recorded as “did not enhance”. The “cell-fate switch of OPCs to GFAP+ cells by fibrinogen” value in the data set on primary rat OPCs (3 days) was “did not inhibit SMAD1/5 phosphorylation, a key pathway downstream of BMP receptor activation, or rescue”. In the data set with primary rat OPCs (no fibrinogen, differentiation media without T3 or growth factors, 3 days), the “number of MBP+ cells in control conditions” value is given as “increased”.

Turning to `c1cc(-c2cnn3cc(-c4ccc(N5CCNCC5)cc4)cnc23)c2cccnc2c1` [LDN-212854], the clinical scores entry in data set [2] (6 mg/kg twice daily for 14 days starting at peak disease) is on record as “significantly improved”. For the same compound, the “ID2 expression in NG2 cells in the EAE white matter” value in data set [2] (14 day treatment) was “decreased”. In data set [2] (14 days treatment), the “demyelination in spinal cord” value is given as “reduced” and the “fibrinogen deposition in spinal cord” value was “reduced”. In data set [2] (setting [4]), the “myelin damage (myelin circularity)” value was “markedly reduced” and the “perivascular NG2 clusters” value was “markedly reduced”. In the data set on PLP-EAE, the clinical scores entry is listed as “improved” and the “spinal cord Id2 protein levels” value is on record as “reduced”. Moreover, in the data set “Water solubility”, the water solubility result is on record as “water soluble; also recorded: water-soluble”. Also, in the data set with NOD-MOG35-55 EAE mice (30 days treatment, vs saline), the “demyelination in spinal cord” value is “reduced” and the “fibrinogen deposition in spinal cord” value is recorded as “reduced”. Also, in the data set on NOD-MOG35-55 EAE mice (treated for 30 days, vs saline), the clinical scores result is reported as “significantly improved”. The “group mean of maximum clinical scores” value with NOD-MOG35-55 EAE mice (treated for 30 days, maximum scores from the last 20 days of treatment, five-point scale) is recorded as 1.75. In the data set on primary rat OPCs (setting [5]), the “formation of GFAP+ astrocytes from fibrinogen-treated OPCs” value is on record as “blocked the formation of GFAP+ astrocytes” and the “mature OL (MBP+) differentiation from fibrinogen-treated OPCs” value was “enhanced formation of mature oligodendrocytes; also recorded: restored mature OL differentiation”.

For the compound `CN1[C@@H]2CC[C@H]1C[C@@H](OC(c1ccccc1)c1ccccc1)C2` [benztropine], in the data set on primary rat OPCs (3 days), the “OPC differentiation to mature MBP+ OLs under extrinsic inhibition by fibrinogen” value was “did not overcome extrinsic inhibition of OPC differentiation by fibrinogen”.

`OCCOCCN1CCN(C2=Nc3ccccc3Sc3ccccc32)CC1` [quetiapine]: in the data set on primary rat OPCs (3 days), the “OPC differentiation to mature MBP+ OLs under extrinsic inhibition by fibrinogen” value is on record as “did not overcome extrinsic inhibition of OPC differentiation by fibrinogen”.
